From US11912693B2, “Compounds for modulating S1P1 activity and methods of using the same” (TREVENA, INC., priority 2017, dated 2024)

Legend:
[1] = molecular target: T1, human sphingosine-1-phosphate receptor 1 (S1P1) (Homo sapiens (Human), UniProt P21453); experiment: Inhibition of cAMP production (HTRF cAMP HiRange), S1P1 CHO-K1 cells; type: cell-based; conditions: for Emax: CHO-K1, read-out: hS1P1 cAMP SPAN
In short: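 CHO-K1 cells stably co-expressing human S1P1 (C-terminal Prolink tag) and EA-β-arrestin2 were grown in AssayComplete Media 6 at 37° C. and 5% CO2, plated, and incubated overnight. Agonist-driven inhibition of intracellular cAMP was read by TR-FRET with the HTRF cAMP HiRange kit on a PheraStar reader. Potency is pEC50, and efficacy (SPAN) is normalized to fingolimod.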
Target sequence in this assay (P21453 whole entry, looked up): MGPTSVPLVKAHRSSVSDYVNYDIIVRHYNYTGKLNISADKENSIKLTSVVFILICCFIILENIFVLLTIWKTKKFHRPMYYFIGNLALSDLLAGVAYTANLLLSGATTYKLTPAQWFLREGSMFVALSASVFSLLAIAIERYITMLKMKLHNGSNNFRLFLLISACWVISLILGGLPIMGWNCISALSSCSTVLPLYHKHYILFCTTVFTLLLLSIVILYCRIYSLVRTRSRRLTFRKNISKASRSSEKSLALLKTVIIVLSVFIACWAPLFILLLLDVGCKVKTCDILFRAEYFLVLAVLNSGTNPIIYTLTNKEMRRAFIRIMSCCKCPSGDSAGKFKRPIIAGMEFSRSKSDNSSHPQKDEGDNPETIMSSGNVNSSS

[2] = molecular target: T1, human sphingosine-1-phosphate receptor 1 (S1P1); experiment: β-Arrestin2 recruitment assay (PathHunter), S1P1 CHO-K1 cells; type: cell-based; conditions: for Emax: CHO-K1, read-out: hS1P1 B-arrestin2 SPAN
In short: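 Enzyme-fragment complementation read-out: agonist-driven β-arrestin2 binding to ProLink-tagged human S1P1 in stable CHO-K1 cells restores β-galactosidase, measured 1 h at room temperature after a 60 min 37° C. compound incubation. Potency as pEC50, efficacy relative to fingolimod (SPAN).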
Target sequence in this assay (P21453 whole entry, looked up): as above
Target sequence in this assay (P32121 whole entry partner, looked up): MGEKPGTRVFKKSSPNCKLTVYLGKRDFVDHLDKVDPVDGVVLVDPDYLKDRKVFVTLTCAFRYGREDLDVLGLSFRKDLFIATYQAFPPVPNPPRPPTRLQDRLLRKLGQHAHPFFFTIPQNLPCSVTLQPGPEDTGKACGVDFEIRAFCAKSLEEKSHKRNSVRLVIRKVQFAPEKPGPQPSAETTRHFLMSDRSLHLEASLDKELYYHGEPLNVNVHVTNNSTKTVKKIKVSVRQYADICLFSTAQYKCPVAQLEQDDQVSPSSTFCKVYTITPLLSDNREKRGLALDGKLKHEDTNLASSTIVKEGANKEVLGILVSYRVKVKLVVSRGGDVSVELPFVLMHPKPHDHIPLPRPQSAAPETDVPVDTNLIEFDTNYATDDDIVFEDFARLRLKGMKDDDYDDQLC

[3] = inhibition of cAMP production, S1P1 CHO-K1 cells
[4] = β-arrestin2 recruitment, S1P1 CHO-K1 cells
[5] = efficacy (SPAN) normalized to fingolimod

N#Cc1cc(-c2nnc(-c3ccc4c(c3)ncn4CCO)o2)ccc1NCC(F)F [Compound 578, 2-[(2,2-difluoroethyl)amino]-5-{5-[1-(2-hydroxyethyl)-1H-1,3-benzodiazol-5-yl]-1,3,4-oxadiazol-2-yl}benzonitrile] was tested, and the “hS1P1 cAMP pEC50” value [1, 3] was under 6.5 and the “hS1P1 B-arrestin2 pEC50” value [2, 4] was under 5.

For COc1cc(NC(C)=O)ccc1-c1nc(-c2ccncc2)no1 [Compound 582, N-{3-methoxy-4-[3-(pyridin-4-yl)-1,2,4-oxadiazol-5-yl]phenyl}acetamide], the “hS1P1 cAMP pEC50” value [1, 3] was under 6.5 and the “hS1P1 B-arrestin2 pEC50” value [2, 4] was under 5.

In the case of CCOP(=O)(Cc1ccc(-c2noc(-c3ccc4c(c3)nnn4C(C)C)n2)cc1)OCC [Compound 583, diethyl [(4-{5-[1-(propan-2-yl)-1H-1,2,3-benzotriazol-5-yl]-1,2,4-oxadiazol-3-yl}phenyl)methyl]phosphonate], the “hS1P1 cAMP SPAN” value [1, 5] was under 75 and the “hS1P1 B-arrestin2 SPAN” value [2, 5] was under 75.

For CNc1ccccc1-c1coc(-c2ccc3c(c2)nnn3C(C)C)n1 [Compound 587, N-methyl-2-{2-[1-(propan-2-yl)-1H-1,2,3-benzotriazol-5-yl]-1,3-oxazol-4-yl}aniline], the Emax [1, 5] was under 75%, the “hS1P1 cAMP pEC50” value [1, 3] was under 6.5 and the Emax [2, 5] was under 75%. The “hS1P1 B-arrestin2 pEC50” value [2, 4] was under 5.

In the case of CCC1CC(=O)c2ccc(-c3nc(-c4cccnc4)no3)cc2O1 (centres unmarked) [Compound 588, 2-ethyl-7-[3-(pyridin-3-yl)-1,2,4-oxadiazol-5-yl]-3,4-dihydro-2H-1-benzopyran-4-one], the “hS1P1 cAMP pEC50” value [1, 3] was under 6.5 and the “hS1P1 B-arrestin2 pEC50” value [2, 4] was under 5.

With CC(C)(O)Cn1nnc2cc(-c3nc(-c4ccc5nonc5c4)no3)ccc21 [Compound 590, 1-{5-[3-(2,1,3-benzoxadiazol-5-yl)-1,2,4-oxadiazol-5-yl]-1H-1,2,3-benzotriazol-1-yl}-2-methylpropan-2-ol] the “hS1P1 cAMP pEC50” value [1, 3] was under 6.5 and the “hS1P1 B-arrestin2 pEC50” value [2, 4] was under 5.

With CCC1(CC)CC(=O)c2cc(-c3nc(-c4cccs4)no3)ccc2N1 [Compound 591, 2,2-diethyl-6-(3-(thiophen-2-yl)-1,2,4-oxadiazol-5-yl)-2,3-dihydroquinolin-4(1H)-one] the “hS1P1 cAMP pEC50” value [1, 3] was over 6.5 and the “hS1P1 B-arrestin2 pEC50” value [2, 4] was over 5.

Cc1ccccc1-c1nc(-c2ccc3c(c2)nnn3CC(C)(C)O)no1 [Compound 593, 2-methyl-1-(5-(5-(o-tolyl)-1,2,4-oxadiazol-3-yl)-1H-benzo[d][1,2,3]triazol-1-yl)propan-2-ol] gave an Emax [1, 5] of over 75%, an EC50 ([1]; inhibition of cAMP production, S1P1 CHO-K1 cells, read-out: hS1P1 cAMP pEC50 (converted)) of under 0.316 µM and an Emax [2, 5] of over 75%. The EC50 ([2]; β-arrestin2 recruitment, S1P1 CHO-K1 cells, read-out: hS1P1 B-arrestin2 pEC50 (converted)) was under 10 µM.

CCC1(CC)CC(=O)c2cc(-c3ncc(-c4ccccc4OC)cn3)ccc2O1 [Compound 594, 2,2-diethyl-6-(5-(2-methoxyphenyl)pyrimidin-2-yl)chroman-4-one] was tested, and the “hS1P1 cAMP pEC50” value [1, 3] was over 6.5 and the “hS1P1 B-arrestin2 pEC50” value [2, 4] was over 5.

With CC(C)Oc1ccc(-c2ncc(-c3ccc4c(c3)nnn4C(C)C)cn2)cc1C#N [Compound 595, 2-isopropoxy-5-(5-(1-isopropyl-1H-benzo[d][1,2,3]triazol-5-yl)pyrimidin-2-yl)benzonitrile] the “hS1P1 cAMP pEC50” value [1, 3] was over 6.5 and the “hS1P1 B-arrestin2 pEC50” value [2, 4] was over 5.

With CC(C)Nc1ccc(-c2ncc(-c3ccc4c(c3)nnn4C(C)C)cn2)cc1C#N [Compound 596, 5-(5-(1-isopropyl-1H-benzo[d][1,2,3]triazol-5-yl)pyrimidin-2-yl)-2-(isopropylamino)benzonitrile] the “hS1P1 cAMP pEC50” value [1, 3] was over 6.5 and the “hS1P1 B-arrestin2 pEC50” value [2, 4] was over 5.

For Cc1cnccc1-c1noc(-c2ccc3c(c2)nnn3CC(C)(C)O)n1 [Compound 597, 2-methyl-1-{5-[3-(3-methylpyridin-4-yl)-1,2,4-oxadiazol-5-yl]-1H-1,2,3-benzotriazol-1-yl}propan-2-ol], the “hS1P1 cAMP pEC50” value [1, 3] was over 6.5 and the “hS1P1 B-arrestin2 pEC50” value [2, 4] was over 5.

CNc1ccccc1-c1nc(-c2ccc3c(c2)nnn3C(C)C)no1 [Compound 599, N-methyl-2-{3-[1-(propan-2-yl)-1H-1,2,3-benzotriazol-5-yl]-1,2,4-oxadiazol-5-yl}aniline] was tested, and the Emax [1, 5] was under 75%, the “hS1P1 cAMP pEC50” value [1, 3] was over 6.5 and the Emax [2, 5] was over 75%. For the same molecule, the “hS1P1 B-arrestin2 pEC50” value [2, 4] was over 5.

In the case of Cc1ccccc1-c1cc(-c2ccc3c(c2)nnn3C(C)C)c[nH]1 [Compound 601, 5-[5-(2-methylphenyl)-1H-pyrrol-3-yl]-1-(propan-2-yl)-1H-1,2,3-benzotriazole], the “hS1P1 cAMP pEC50” value [1, 3] was under 6.5 and the “hS1P1 B-arrestin2 pEC50” value [2, 4] was over 5.

CC(C)n1nnc2cc(-c3noc(-c4ncccc4O)n3)ccc21 [Compound 602, 2-{3-[1-(propan-2-yl)-1H-1,2,3-benzotriazol-5-yl]-1,2,4-oxadiazol-5-yl}pyridin-3-ol] was tested, and the “hS1P1 cAMP pEC50” value [1, 3] was under 6.5 and the “hS1P1 B-arrestin2 pEC50” value [2, 4] was under 5.

For CCC1(CC)CC(=O)c2cc(-c3nc(-c4cncc(S(N)(=O)=O)c4)no3)ccc2O1 [Compound 603, 5-(5-(2,2-diethyl-4-oxochroman-6-yl)-1,2,4-oxadiazol-3-yl)pyridine-3-sulfonamide], the “hS1P1 cAMP pEC50” value [1, 3] was over 6.5 and the “hS1P1 B-arrestin2 pEC50” value [2, 4] was over 5.

For CCC1(CC)CC(=O)c2cc(-c3nc(-c4sccc4OC)no3)ccc2O1 [Compound 604, 2,2-diethyl-6-(3-(3-methoxythiophen-2-yl)-1,2,4-oxadiazol-5-yl)chroman-4-one], the “hS1P1 cAMP pEC50” value [1, 3] was over 6.5 and the “hS1P1 B-arrestin2 pEC50” value [2, 4] was over 5.

For COc1ccncc1-c1nc(-c2ccc3c(c2)nnn3C(C)C)no1 [Compound 605, 3-(1-isopropyl-1H-benzo[d][1,2,3]triazol-5-yl)-5-(4-methoxypyridin-3-yl)-1,2,4-oxadiazole], the Emax [1, 5] was over 75%, the “hS1P1 cAMP pEC50” value [1, 3] was over 6.5 and the Emax [2, 5] was over 75%. For the same molecule, the “hS1P1 B-arrestin2 pEC50” value [2, 4] was over 5.

In the case of Cc1ccccc1-c1nc(-c2ccc3c(c2)nnn3C(C)(C)CO)no1 [Compound 609, 2-methyl-2-(5-(5-(o-tolyl)-1,2,4-oxadiazol-3-yl)-1H-benzo[d][1,2,3]triazol-1-yl)propan-1-ol], the “hS1P1 cAMP pEC50” value [1, 3] was over 6.5 and the “hS1P1 B-arrestin2 pEC50” value [2, 4] was under 5.

COc1ccc(-c2nc(-c3ccc4c(c3)nnn4C(C)(C)CO)no2)c(C)c1 [Compound 610, 2-(5-(5-(4-methoxy-2-methylphenyl)-1,2,4-oxadiazol-3-yl)-1H-benzo[d][1,2,3]triazol-1-yl)-2-methylpropan-1-ol] was tested, and the “hS1P1 cAMP pEC50” value [1, 3] was under 6.5 and the “hS1P1 B-arrestin2 pEC50” value [2, 4] was under 5.

In the case of Cc1ccsc1-c1nc(-c2ccc3c(c2)nnn3C(C)(C)CO)no1 [Compound 611, 2-methyl-2-(5-(5-(3-methylthiophen-2-yl)-1,2,4-oxadiazol-3-yl)-1H-benzo[d][1,2,3]triazol-1-yl)propan-1-ol], the Emax [1, 5] was under 75%, the “hS1P1 cAMP pEC50” value [1, 3] was over 6.5 and the Emax [2, 5] was under 75%. The “hS1P1 B-arrestin2 pEC50” value [2, 4] was over 5.

COc1cccnc1-c1nc(-c2ccc3c(c2)nnn3C(C)C)no1 [Compound 612, 3-(1-isopropyl-1H-benzo[d][1,2,3]triazol-5-yl)-5-(3-methoxypyridin-2-yl)-1,2,4-oxadiazole] was tested, and the Emax [1, 5] was under 75%, the “hS1P1 cAMP pEC50” value [1, 3] was over 6.5 and the Emax [2, 5] was over 75%. The “hS1P1 B-arrestin2 pEC50” value [2, 4] was over 5.

Cc1ccncc1-c1noc(-c2ccc3c(c2)NC(=O)CN3)n1 [Compound 613, 7-[3-(4-methylpyridin-3-yl)-1,2,4-oxadiazol-5-yl]-1,2,3,4-tetrahydroquinoxalin-2-one] was tested, and the “hS1P1 cAMP pEC50” value [1, 3] was under 6.5 and the “hS1P1 B-arrestin2 pEC50” value [2, 4] was under 5.

For COc1ccccc1-c1noc(-c2ccc3c(c2)NC(=O)CN3)n1 [Compound 614, 7-[3-(2-methoxyphenyl)-1,2,4-oxadiazol-5-yl]-1,2,3,4-tetrahydroquinoxalin-2-one], the “hS1P1 cAMP pEC50” value [1, 3] was under 6.5 and the “hS1P1 B-arrestin2 pEC50” value [2, 4] was under 5.

For CCC1(CC)CC(=O)c2cc(-c3nc(-c4cnccn4)no3)ccc2O1 [Compound 617, 2,2-diethyl-6-(3-(pyrazin-2-yl)-1,2,4-oxadiazol-5-yl)chroman-4-one], the “hS1P1 cAMP pEC50” value [1, 3] was under 6.5 and the “hS1P1 B-arrestin2 pEC50” value [2, 4] was under 5.

COc1ncccc1-c1noc(-c2ccc3c(c2)nnn3C(C)C)n1 [Compound 619, 5-(1-isopropyl-1H-benzo[d][1,2,3]triazol-5-yl)-3-(2-methoxypyridin-3-yl)-1,2,4-oxadiazole] was tested, and the “hS1P1 cAMP pEC50” value [1, 3] was over 6.5 and the “hS1P1 B-arrestin2 pEC50” value [2, 4] was over 5.

In the case of CCC1(CC)CC(=O)c2cc(-c3nc(-c4cncnc4)no3)ccc2O1 [Compound 620, 2,2-diethyl-6-(3-(pyrimidin-5-yl)-1,2,4-oxadiazol-5-yl)chroman-4-one], the “hS1P1 cAMP pEC50” value [1, 3] was over 6.5 and the “hS1P1 B-arrestin2 pEC50” value [2, 4] was over 5.

With CCC1(CC)CC(=O)c2cc(-c3nc(-c4cccnn4)no3)ccc2O1 [Compound 621, 2,2-diethyl-6-(3-(pyridazin-3-yl)-1,2,4-oxadiazol-5-yl)chroman-4-one] the “hS1P1 cAMP pEC50” value [1, 3] was under 6.5 and the “hS1P1 B-arrestin2 pEC50” value [2, 4] was under 5.

For CCC1(CC)CC(=O)c2cc(-c3nc(-c4ccc5ncoc5c4)no3)ccc2O1 [Compound 622, 6-(3-(benzo[d]oxazol-6-yl)-1,2,4-oxadiazol-5-yl)-2,2-diethylchroman-4-one], the “hS1P1 cAMP pEC50” value [1, 3] was over 6.5 and the “hS1P1 B-arrestin2 pEC50” value [2, 4] was under 5.

COc1ccccc1-c1nc(-c2ccc3c(c2)nnn3C(C)(C)CO)no1 [Compound 623, 2-(5-(5-(2-methoxyphenyl)-1,2,4-oxadiazol-3-yl)-1H-benzo[d][1,2,3]triazol-1-yl)-2-methylpropan-1-ol] was tested, and the Emax [1, 5] was over 75%, the “hS1P1 cAMP pEC50” value [1, 3] was under 6.5 and the Emax [2, 5] was over 75%. For the same molecule, the “hS1P1 B-arrestin2 pEC50” value [2, 4] was under 5.
